# From US11365425B2, “Resistant protein for use in herbicide, encoding gene and application thereof” (BEIJING DABEINONG BIOTECHNOLOGY CO., LTD., priority 2016, dated 2022)
# Read-outs that look alike come from different tables or passages of the source.
# B1: MTHFR66 protein: herbicide resistant protein, methyltetrahydrofolate reductase, amino acid sequence SEQ ID NO: 2 (289 amino acids) (protein, listed as Sphingomonas paucimobilis)
# chain: MGSPVMAIDCDSVPDNLVHCFSIEMTGKDIDALQAAAPLLPPGTSVAVTFLPGENYETRIAACKAVRDLGFEPMPHFSARRIQDEAEFHDFLHAVVAEAKVRRCFVIAGDAAEPEGPYADSMQLIASGAFEAAGIDLIGVAGHPEGHPNMTAGEATAVLRAKTDEIERRGMAALIVTQFTFDAARTLDWLAEVRQAGIDVPVLLGVPGPAGIKTLLRFAARCGVGASASVLSKYGISIGHLLGSAGPDRFVDALRAGIGEQHGHVRLHFYPFGGLDKTARWIADYARKH
# Legend:
# [1] = test system: maize plants (Zm-MTHFR66); conditions: 4480 g ae/ha dicamba (8 × dicamba), V5-V6 stage, 21 days after spraying
# Source text: (§1) The maize plants into which the optimized MTHFR66 nucleotide sequence was introduced, the maize plants into which the natural MTHFR66 nucleotide sequence was introduced and wild-type maize plants (at V5-V6 stage) were respectively tested for the herbicide resistance effect to dicamba.
# (§2) The maize plants into which the optimized MTHFR66 nucleotide sequence was introduced, the maize plants into which the natural MTHFR66 nucleotide sequence was introduced and wild-type maize T1 hybrid plants (at V5-V6 stage) were taken and sprayed with a dicamba herbicide (4480 g ae/ha, 8-fold field concentration) and a blank solvent (water) respectively. 21 days after spraying, the support root development situation was collected. A total of three strains (S1, S2 and S3) of Zm-mMTHFR66, a total of two strains (S4 and S5) of Zm-MTHFR66, and a total of 1 strain of wild type (CK) were taken; and 10-15 plants were selected from each strain and tested.
# [2] = test system: maize plants (Zm-mMTHFR66); conditions: 4480 g ae/ha dicamba (8 × dicamba), V5-V6 stage, 21 days after spraying
# Source text: as §1, §2
# [3] = test system: wild-type maize plants (CK); conditions: 4480 g ae/ha dicamba (8 × dicamba), V5-V6 stage, 21 days after spraying
# Source text: as §1, §2
# [4] = test system: Arabidopsis thaliana T1 plants (At-mMTHFR66); conditions: 560 g ae/ha dicamba (1 × dicamba) sprayed
# Source text: (§3) Arabidopsis thaliana was first transformed with the MTHFR66 gene. T1 transformants were initially selected from the background of untransformed seeds using a glufosinate selection scheme. The plants that were transformed with the recombinant expression vector DBN111101 were Arabidopsis thaliana plants (At mMTHFR66) into which an optimized MTHFR66 nucleotide sequence located in the chloroplast was introduced, and the plants that were transformed with the recombinant expression vector DBN111101N were Arabidopsis thaliana plants (At MTHFR66) into which a natural MTHFR66 nucleotide sequence located in the chloroplast was introduced. […] Arabidopsis thaliana T1 plants (At-mMTHFR66) into which an optimized MTHFR66 nucleotide sequence was introduced, Arabidopsis thaliana T1 plants (At-MTHFR66) into which a natural MTHFR66 nucleotide sequence was introduced and wild-type Arabidopsis thaliana plants (18 days after sowing) were tested for the herbicide tolerance effect to dicamba.
# (§4) Arabidopsis thaliana T1 plants into which an optimized MTHFR66 nucleotide sequence was introduced, Arabidopsis thaliana T1 plants into which a natural MTHFR66 nucleotide sequence was introduced and wild-type Arabidopsis thaliana plants were sprayed with dicamba (560 g ae/ha, 1-fold field concentration) and a blank solvent (water) respectively. Plants were counted for the tolerance situations 7 days and 14 days after spraying: those having a consistent growth status with the blank solvent (water) group after 7 days were classified as highly resistant plants, those having curled rosette leaves after 7 days were classified as moderately resistant plants, those still not capable of bolting after 14 days were classified as lowly resistant plants, and those dead after 14 days were classified as non-resistant plants. Since each Arabidopsis thaliana T1 plant was an independent transformation event, a significant difference in individual T1 responses could be expected at a given dose. The results were shown as Table 1 and FIG. 9.
# [5] = test system: wild-type Arabidopsis thaliana plants; conditions: 560 g ae/ha dicamba (1 × dicamba) sprayed
# Source text: as §3, §4
# [6] = test system: Arabidopsis thaliana T1 plants (At-MTHFR66); conditions: 560 g ae/ha dicamba (1 × dicamba) sprayed
# Source text: as §3, §4
# [7] = Dicamba demethylation function of MTHFR66 protein in the presence of trace tetrahydrofolate; format: biochemical; conditions: 1 mM dicamba, 30° C., 1 hour
# Protocol: […] The reaction solution was lyophilized, and then dissolved by adding 300 μl of methanol. The amount of the generated intermediate metabolite of dicamba, DCSA, was detected using high performance liquid chromatography (HPLC).
# [8] = Determination of enzymatic activity of MTHFR66 protein (dicamba to DCSA, HPLC); format: biochemical
# Protocol: Enzymatic reaction system (300 μL): containing 1 mM substrate (dicamba), 0.2 mg of MTHFR66, 1 mM tetrahydrofolate (THF) and a buffer system of Tris-HCl at a concentration of 100 mM (pH 8.0), which were reacted in a water bath at a temperature of 30° C. for 1 hour, then kept in boiling water for 1 min, after which the reaction was terminated. The reaction solution was lyophilized, and then dissolved by adding 300 μl of methanol. The amount of the generated intermediate metabolite of dicamba, 3,6-dichlorosalicylic acid (DCSA), was detected using high performance liquid chromatography (HPLC). An enzymatic activity unit is defined as: the amount of enzyme required for degradation of dicamba to generate 1 nmol of product DCSA at pH 8.0, at a temperature of 30° C. within 1 min, and is expressed as U.
# [9] = Hydrolase functional determination and product identification of MTHFR66 protein; format: biochemical; conditions: absence of the electron acceptor NAD+
# Protocol: Enzymatic reaction system (300 μL): containing 0.2 mg of MTHFR66, 1 mM 5-methyl-tetrahydrofolate (5-CH3—H4F) and a buffer system of Tris-HCl at a concentration of 100 mM (pH 8.0), which were reacted in a water bath at a temperature of 30° C. for 1 hour, then kept in boiling water for 1 min, after which the reaction was terminated. The reaction solution was lyophilized, dissolved by adding 300 μl of 0.1 mol/L KH2PO4 (pH 6.8, 1% ascorbic acid and 0.1% β-mercaptoethanol), filtered using a filter membrane (with a pore size of 0.22 μm), and detected using high performance liquid chromatography. Liquid chromatography conditions were: mobile phase: 0.05 mol/l KH2PO4 (pH 3.0):acetonitrile (90:10, V/V), Zorbax C218 ODS Spherex reversed phase column (5 μm, 4.6 mm×250 mm, Agilent, USA), column temperature of 23° C., UV-detector, with a detection wavelength of 298 nm, a sample injection volume of 20 μl, and a flow rate of 1.0 mL/min. Quantification was performed by peak area according to the external standard method.
# Metabolites were identified through HPLC-MS (high performance liquid chromatography-mass spectrum) under the conditions as follows: mobile phase: 0.05 mol/l KH2PO4 (pH 3.0):acetonitrile (90:10, V/V), Zorbax XDB-C18, 5 cm×0.46 cm, 1.8 mm reversed phase column (5 μm, 4.6 mm×250 mm, Agilent, USA), and a flow rate of 0.25 mL/min. […]
# [10] = curled rosette leaves after 7 days
# [11] = growth consistent with water group after 7 days
# [12] = not capable of bolting after 14 days
molecule,measurement,setting,value
"COc1c(Cl)ccc(Cl)c1C(=O)O [dicamba, 3,6-dichloro-o-anisic acid]",Proportion of normally developed support root,[1]; strain S4 (Zm-MTHFR66),16.67%
same,Support root abnormally developed (number of plants),[1]; strain S4 (Zm-MTHFR66),10
same,Support root normally developed (number of plants),[1]; strain S4 (Zm-MTHFR66),2
same,Proportion of normally developed support root,[1]; strain S5 (Zm-MTHFR66),30.77%
same,Support root abnormally developed (number of plants),[1]; strain S5 (Zm-MTHFR66),9
same,Support root normally developed (number of plants),[1]; strain S5 (Zm-MTHFR66),4
same,Proportion of normally developed support root,[2]; strain S1 (Zm-mMTHFR66),92.31%
same,Support root abnormally developed (number of plants),[2]; strain S1 (Zm-mMTHFR66),1
same,Support root normally developed (number of plants),[2]; strain S1 (Zm-mMTHFR66),12
same,Proportion of normally developed support root,[2]; strain S2 (Zm-mMTHFR66),90.91%
same,Support root abnormally developed (number of plants),[2]; strain S2 (Zm-mMTHFR66),1
same,Support root normally developed (number of plants),[2]; strain S2 (Zm-mMTHFR66),10
same,Proportion of normally developed support root,[2]; strain S3 (Zm-mMTHFR66),83.33%
same,Support root abnormally developed (number of plants),[2]; strain S3 (Zm-mMTHFR66),2
same,Support root normally developed (number of plants),[2]; strain S3 (Zm-mMTHFR66),10
same,Proportion of normally developed support root,[3],0%
same,Support root abnormally developed (number of plants),[3],16
same,Support root normally developed (number of plants),[3],0
same,Moderately resistant (number of plants),[4]; [10],18
same,Non-resistant (number of plants),[4]; dead after 14 days,5
same,Highly resistant (number of plants),[4]; [11],0
same,Lowly resistant (number of plants),[4]; [12],0
same,Moderately resistant (number of plants),[5]; [10],0
same,Non-resistant (number of plants),[5]; dead after 14 days,22
same,Highly resistant (number of plants),[5]; [11],0
same,Lowly resistant (number of plants),[5]; [12],0
same,Moderately resistant (number of plants),[6]; [10],3
same,Non-resistant (number of plants),[6]; dead after 14 days,19
same,Highly resistant (number of plants),[6]; [11],0
same,Lowly resistant (number of plants),[6]; [12],2
B1,demethylation of dicamba to DCSA,[7]; in the presence of 0.01 mM tetrahydrofolate,can demethylate dicamba to generate DCSA
same,demethylation of dicamba to DCSA,[7]; in the presence of 0.5 mM of tetrahydrofolate,can fully demethylate 1 mM dicamba to generate DCSA
same,DCSA generated within 1 hour,"[8]; 1 mM dicamba, 0.2 mg MTHFR66, 1 mM THF, Tris-HCl pH 8.0, 30° C., 1 hour",0.15 mM
same,specific enzymatic activity,"[8]; U = enzyme generating 1 nmol DCSA from dicamba at pH 8.0, 30° C. within 1 min",3.75 U/mg
same,product of 5-methyl-tetrahydrofolate metabolism (HPLC-MS),[9],can hydrolyze 5-methyl-tetrahydrofolate to tetrahydrofolate
same,transformation of 5-methyl-tetrahydrofolate (HPLC),"[9]; 1 mM 5-methyl-tetrahydrofolate, 30° C., 1 hour",can transform 5-methyl-tetrahydrofolate to other substances
